Columns and labels:
[1] = cynomolgus monkey, in vivo
Experimental: Following European recommendations, 2 five-year-old healthy female cynomolgus macaques, 3–4 kg, were housed under conventional conditions in the animal facility. […] Animals were acclimatized to laboratory conditions and trained to breathe an aerosol with a facemask spontaneously. Aerosol generated from 3 ml of 0.9% NaCl mixed with 74 MBq of DTPA radiolabeled with technetium 99m (^99mTc-DTPA) was administered through a facemask connected to the prototype mesh nebulizers, as used in MeV infection experiments (Fig. 2a). Deposition of aerosol was extrapolated based on the ^99mTc-DTPA signal measured at the end of the nebulization using a gamma camera (Orbiter 75 Ecam, Siemens healthcare, Erlangen, Germany)[68]. The nebulizer charge was measured by counting the radioactivity in the syringe (that contained ^99mTc-DTPA) before and after loading the nebulizers. Immediately after aerosol delivery, the animals were imaged using the gamma camera. The post-anterior static scintigraphy acquisition was performed for 120s. The amount of ^99mTc-DTPA deposited into airways and stomach and remaining in the nebulizer was determined from the digitalized images taking into account the tissue attenuation coefficients, previously determined by perfusion scintigraphy (intravenous injection of ^99mTc-macroagregates of albumin). […]

[2] = Laser diffraction and nebulizer performance of aerosol from prototype mesh nebulizer; type: physicochemical; conditions: 3 ml of 4 mg/ml, mean + SD of four devices
Experimental: The aerodynamic performances of the aerosols generated by the prototype mesh nebulizer were determined by laser diffraction using a Spraytec™ instrument (Malvern Instruments Ltd., Malvern, UK) and the Spraytec inhalation cell (Malvern Instruments Ltd., Malvern, UK) connected to an aspiration carried out by a vacuum pump set to 30–50L/min [69]. The prototype mesh nebulizers (n=4) were loaded with 3 ml of either NaCl 0.9% or the HCR4 peptide (4 mg/ml, dissolved as described above) and then connected to the inhalation cell. Nebulization duration was notified at the end of the complete aerosolization of the loaded 3 ml. Diffraction data and volume distribution were automatically registered by the Spraytec software.
The output of nebulizer was determined by the difference between the weight of the nebulizer before and after nebulization and was expressed in percentage of the loaded volume. The output rate of each nebulizer (in ml/min) was then determined as the ratio between the output and the nebulization duration. At least, the residual volume corresponding to the volume of liquid remaining in the reservoir at the end of the nebulization was also determined by weighting the nebulizer before loading it and after nebulization.
25 Table S1. […]
28 1 VMD for Volume Median Diameter, presents the mean size of generated aerosols, measured by […]

[3] = Solubility of peptide for nebulization; type: physicochemical; conditions: dissolved in filtered Milli-Q water to 4 mg/ml, pH adjusted to 7, HEPES buffer
MeV [4] = conditions: intranasal administration, cited from earlier work
Source text: MeV uses several receptors to infect target cells. […] Infection is initiat ...

MeV [5] = conditions: cell culture and organotypic brain cultures; cited from earlier work
MeV [6] = test: Plaque reduction assay on Vero-hSLAM cells; conditions: prototype mesh nebulizer
MeV IC323-eGFP [7] = test: Nebulized peptide in MeV-infected cynomolgus macaques; conditions: absence of fluorescent rash, PBMC infection, viremia, viral shedding, MeV-specific immune response
Source text: To assess antiviral efficacy of nebulized HRC4 peptide in NHPs, groups of 3 animals were infected with 10^4 PFU MeV IC323-eGFP by intra-tracheal inoculation, and either mock-treated with nebulized saline solution (C1, C2, and C3) or treated with nebulized HRC4 peptide (P1, P2, and P3) twenty-four and six hours before infection and twenty-four hours after infection (Fig. 6a). The NHPs were housed in cages accommodating two animals per cage for ethical reasons, so that one cage contained one peptide-treated and one saline-nebulized macaque.
(a) Experimental design: cynomolgus monkeys (3 animals/group) were either nebulized with 3 ml of NaCl 0.9% (control group, C) or with 3 ml HRC4 peptide 4 mg/ml (experimental group, P), 24 h and 6 h before and 24 h after intra-tracheal infection with 10^4 PFU MeV IC323 eGFP. Blood samples were taken every 3 days for the first 16 days and fluorescence of the skin and mucosa tested at that time points. (b) Macroscopic manifestation of MeV infection, typical fluorescent rash observed on tongue, skin (back and chin) and palate (marked with white arrows), monitored under anesthesia using a blue light with orange filter. […] (d) Analysis of viremia by quantification of the percentage of GFP^+ peripheral blood mononuclear cells (PBMC) in the blood by flow cytometry and MeV-specific RNA in PBMCs and in throat swabs by RT-qPCR, during the course of infection. […]

MeV IC323-eGFP [8] = test: Serial viral passaging in presence of peptide, sequencing for escape variants; conditions: 1μM peptide added after infection, 8 serial passages on Vero SLAM cells, 100 PFU per passage, sequencing of viral RNA

| Structure (SMILES) | Deposition in macaque, Lungs [1] | VMD ([2]; laser diffraction (Spraytec)) | < 5µm ([2]; percentage of particles smaller than 5 µm) | Solubility [3] | Survival of mice (MeV [4]; humanized transgenic mouse models of lethal measles disease) | Viral titer in cotton rat lungs (MeV [4]) | Inhibition of the fusion process (MeV [5]) | Antiviral activity after versus before nebulization (MeV [6]) | Development of MeV infection (MeV IC323-eGFP [7]) | Mutations in MeV F after 8th passage (MeV IC323-eGFP [8]) |
| --- | --- | --- | --- | --- | --- | --- | --- | --- | --- | --- |
| O=C([O-])CN(CCN(CC(=O)[O-])CC(=O)[O-])CCN(CC(=O)[O-])CC(=O)[O-].[99Tc+4] [99mTC-DTPA, DTPA radiolabeled with technetium 99m] | 11.4 +/- 3.1% | – | – | – | – | – | – | – | – | – |
| CC[C@H](C)[C@H](NC(=O)[C@H](C)NC(=O)[C@H](CC(N)=O)NC(=O)CNC(=O)[C@H](CC(C)C)NC(=O)[C@H](CC(N)=O)NC(=O)[C@@H](NC(=O)CNC(=O)[C@@H](NC(=O)[C@H](CC(=O)O)NC(=O)[C@H](CC(C)C)NC(=O)[C@H](CCCNC(=N)N)NC(=O)[C@H](CCC(=O)O)NC(=O)[C@H](CC(C)C)NC(=O)[C@H](CO)NC(=O)[C@@H](NC(=O)[C@@H]1CCCN1C(=O)[C@@H]1CCCN1)[C@@H](C)CC)C(C)C)[C@@H](C)O)C(=O)N[C@@H](C)C(=O)N[C@@H](CCCCN)C(=O)N[C@@H](CC(C)C)C(=O)N[C@@H](CCC(=O)O)C(=O)N[C@@H](CC(=O)O)C(=O)N[C@@H](C)C(=O)N[C@@H](CCCCN)C(=O)N[C@@H](CCC(=O)O)C(=O)N[C@@H](CC(C)C)C(=O)N[C@@H](CC(C)C)C(=O)N[C@@H](CCC(=O)O)C(=O)N[C@@H](CO)C(=O)N[C@@H](CO)C(=O)N[C@@H](CC(=O)O)C(=O)N[C@@H](CCC(N)=O)C(=O)N[C@H](C(=O)N[C@@H](CC(C)C)C(=O)N[C@@H](CCCNC(=N)N)C(=O)NCC(=O)N[C@@H](CO)C(=O)NCC(=O)N[C@@H](CO)C(=O)NCC(=O)N[C@@H](CSC1CC(=O)N(CCCC(=O)NCCOCCOCCOCCOCCC(=O)NCCN(CCNC(=O)CCOCCOCCOCCOCCNC(=O)CCCN2C(=O)CC(SC[C@H](NC(=O)CNC(=O)[C@H](CO)NC(=O)CNC(=O)[C@H](CO)NC(=O)CNC(=O)[C@H](CCCNC(=N)N)NC(=O)[C@H](CC(C)C)NC(=O)[C@@H](NC(=O)[C@H](CCC(N)=O)NC(=O)[C@H](CC(=O)O)NC(=O)[C@H](CO)NC(=O)[C@H](CO)NC(=O)[C@H](CCC(=O)O)NC(=O)[C@H](CC(C)C)NC(=O)[C@H](CC(C)C)NC(=O)[C@H](CCC(=O)O)NC(=O)[C@H](CCCCN)NC(=O)[C@H](C)NC(=O)[C@H](CC(=O)O)NC(=O)[C@H](CCC(=O)O)NC(=O)[C@H](CC(C)C)NC(=O)[C@H](CCCCN)NC(=O)[C@H](C)NC(=O)[C@@H](NC(=O)[C@H](C)NC(=O)[C@H](CC(N)=O)NC(=O)CNC(=O)[C@H](CC(C)C)NC(=O)[C@H](CC(N)=O)NC(=O)[C@@H](NC(=O)CNC(=O)[C@@H](NC(=O)[C@H](CC(=O)O)NC(=O)[C@H](CC(C)C)NC(=O)[C@H](CCCNC(=N)N)NC(=O)[C@H](CCC(=O)O)NC(=O)[C@H](CC(C)C)NC(=O)[C@H](CO)NC(=O)[C@@H](NC(=O)[C@@H]3CCCN3C(=O)[C@@H]3CCCN3)[C@@H](C)CC)C(C)C)[C@@H](C)O)[C@@H](C)CC)[C@@H](C)CC)C(=O)O)C2=O)CCO[C@H]2CC[C@@]3(C)C(=CC[C@H]4[C@@H]5CC[C@H]([C@H](C)CCCC(C)C)[C@@]5(C)CC[C@@H]43)C2)C1=O)C(=O)O)[C@@H](C)CC (stereo partly shown) [HRC4] | – | 4 μm | Approximately 58% | soluble in water | significant increase in survival of mice | reduction of the viral titer in cotton rat lungs | inhibited the fusion process | did not cause any loss of activity | abrogated the development of MeV infection in two out of three animals | no mutations |

— paper PMC9176655, “Nebulized fusion inhibitory peptide protects cynomolgus macaques from measles virus infection” (Research Square, 2022)
